The results in this text go back to patent publication US11352352B2, “Aminopyrimidine compound, preparation method therefor and use thereof” (BEIJING ADAMADLE BIOTECHNOLOGY LIMITED LIABILITY COMPANY, priority 2017, dated 2022).

One may read the IC50 as the concentration at which inhibition is half-maximal.

What all share (test): Cell proliferation inhibition experiment, CellTiter-Glo (CTG) method
Common to all, as to assay type: cell-based
On the technique in general: In ATP-based viability assays light output follows the ATP content of the culture.

Experiment [1] concerns NCI-H1975. The conditions noted are these: for IC50: NCI-H1975 cells, CTG, 3 days; for A-431/NCI-H1975 Selectivity: ratio of A-431 IC50 to NCI-H1975 IC50. The method in brief: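 NCI-H1975 cells with viability above 90% by trypan blue were seeded at 90 μL per well in black 96-well plates and incubated overnight at 37° C., 5% CO2. Compounds were added at nine concentrations in triplicate, and viability was measured with CellTiter-Glo luminescence on EnVision. IC50 came from non-linear S-curve fitting in GraphPad Prism 5.0.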

For experiment [2], the system named is PC-9. The conditions noted are these: PC-9 cells, 3 days. The method in brief:
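Cells in log-phase growth (viability above 90% by trypan blue) were seeded at 90 μL per well in black-walled, clear-bottom 96-well plates and incubated overnight at 37° C., 5% CO2. A T0 plate was read the next day. Test compounds were added at nine concentrations in triplicate with a solvent control. Viability was measured by CellTiter-Glo luminescence on EnVision, and IC50 came from non-linear S-curve fitting in GraphPad Prism 5.0.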

Experiment [3] deals with A-431. The note with it: A-431 cells, 3 days. The method in brief: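 For each line, compound is added at nine threefold-spaced concentrations, highest 30 μM (A-431) or 1.111 μM (NCI-H1975, PC-9), and cells grow 3 days at 37 °C. CellTiter-Glo luminescence gives survival relative to solvent control, fitted to yield IC50.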

Turning to `C=CC(=O)Nc1cc(Nc2cc(-c3cc4cnn(C)c4cc3F)ncn2)c(OC)cc1OCCN(C)C` [compound 194], the concentration for half-maximal inhibition (IC50) in experiment [1] (Homo sapiens, NCI-H1975, 72 h) is 75.2 nM; in experiment [2] (Homo sapiens, PC-9, 72 h), 45.8 nM; in experiment [3] (Homo sapiens, A-431, 72 h), 1640 nM. Further, the “A-431/NCI-H1975 Selectivity” value in experiment [1] is on record as 21.8.
Take `C=CC(=O)Nc1cc(Nc2cc(-c3cc4cnn(C)c4cc3F)ncn2)c(OC)cc1N(C)C1CCN(C)C1` (stereo not shown) [compound 195]: the IC50 in experiment [1] (Homo sapiens, NCI-H1975, 72 h) came out at 20.4 nM; in experiment [2] (Homo sapiens, PC-9, 72 h), 19.5 nM; in experiment [3] (Homo sapiens, A-431, 72 h), 1440 nM. For the same compound, the “A-431/NCI-H1975 Selectivity” value in experiment [1] is reported as 70.5.
The corresponding values for `C=CC(=O)Nc1cc(Nc2cc(-c3ccc4cnn(C)c4c3)ncn2)c(OC)cc1N(C)CCN(C)C(C)C` [compound 196] are 36.4 nM, 20.7 nM, 2020 nM and 55.4.
As for `C=CC(=O)Nc1c(N(C)CCN(C)C(C)C)cc(OC)c(Nc2cc(-c3ccc4c(cnn4C)c3)ncn2)c1F` [compound 197], the IC50 in experiment [1] (Homo sapiens, NCI-H1975, 72 h) turned out to be 20.7 nM; in experiment [2] (Homo sapiens, PC-9, 72 h), 13.4 nM; in experiment [3] (Homo sapiens, A-431, 72 h), 1350 nM. Besides, in experiment [1], the “A-431/NCI-H1975 Selectivity” value is recorded as 65.1.
In the same order, the values of `C=CC(=O)Nc1c(N(C)CCN(C)C(C)C)cc(OC)c(Nc2cc(-c3ccc4cnn(C)c4c3)ncn2)c1F` [compound 198] are 77.1 nM, 65.8 nM, 2340 nM and 30.4.
The corresponding values for `C=CC(=O)Nc1cc(Nc2cc(-c3ccc4cnn(C)c4c3)ncn2)c(OC(F)F)cc1N(C)CCN(C)C(C)C` [compound 199] are 37.8 nM, 24.7 nM, 1980 nM and 52.3.
With `C=CC(=O)Nc1c(N(C)CCN(C)CC)cc(OC)c(Nc2cc(-c3ccc4c(cnn4C)c3)ncn2)c1F` [compound 200], the IC50 came to 14.2 nM in experiment [1] (Homo sapiens, NCI-H1975, 72 h); 27 nM in experiment [2] (Homo sapiens, PC-9, 72 h); 984 nM in experiment [3] (Homo sapiens, A-431, 72 h).
Turning to `C=CC(=O)Nc1c(N(C)CCN(C)CC)cc(OC)c(Nc2cc(-c3ccc4cnn(C)c4c3)ncn2)c1F` [compound 201], the 50% inhibitory concentration (IC50) in experiment [1] (Homo sapiens, NCI-H1975, 72 h) amounted to 24.5 nM; in experiment [2] (Homo sapiens, PC-9, 72 h) it was 21.1 nM; in experiment [3] (Homo sapiens, A-431, 72 h), 1340 nM. The “A-431/NCI-H1975 Selectivity” value in experiment [1] is 54.9.
The corresponding values for `C=CC(=O)Nc1cc(Nc2cc(-c3ccc4c(cnn4C)c3)ncn2)c(OC)cc1N1CCC(N2CCC(OC)C2)CC1` (stereo not shown) [compound 202] are 10.7 nM, 12.7 nM, 798 nM and 74.6.
Regarding `C=CC(=O)Nc1cc(Nc2cc(-c3ccc4c(cnn4C)c3)ncn2)c(OC)cc1N1CCC(N2CCC(OC)CC2)CC1` [compound 204], the IC50 in experiment [1] (Homo sapiens, NCI-H1975, 72 h) was found to be 15.7 nM; in experiment [2] (Homo sapiens, PC-9, 72 h), 15.8 nM; in experiment [3] (Homo sapiens, A-431, 72 h), 891 nM. Further, the “A-431/NCI-H1975 Selectivity” value in experiment [1] was determined as 56.7.
For the compound `C=CC(=O)Nc1cc(Nc2cc(-c3ccc4cnn(C)c4c3)ncn2)c(OC)cc1N1CCC(N2CCC(OC)CC2)CC1` [compound 205], the half-maximal inhibitory concentration (IC50) worked out at 13 nM in experiment [1] (Homo sapiens, NCI-H1975, 72 h); 7.6 nM in experiment [2] (Homo sapiens, PC-9, 72 h); 885 nM in experiment [3] (Homo sapiens, A-431, 72 h).
With `C=CC(=O)Nc1cc(Nc2cc(-c3ccc4cnn(C)c4c3)ncn2)c(OC)cc1N1CCC(N2CC(OC)C2)CC1` [compound 207], the half-maximal inhibitory concentration (IC50) in experiment [1] (Homo sapiens, NCI-H1975, 72 h) was determined as 10.2 nM; in experiment [2] (Homo sapiens, PC-9, 72 h) it was 5.6 nM; in experiment [3] (Homo sapiens, A-431, 72 h) it was 895 nM. Moreover, the “A-431/NCI-H1975 Selectivity” value in experiment [1] is on record as 87.7.
As for `C=CC(=O)Nc1cc(Nc2cc(-c3ccc4c(cnn4C)c3)ncn2)c(OC)cc1N1CCC(N2CCOCC2)CC1` [compound 208], the IC50 in experiment [1] amounted to 20 nM; in experiment [2], 10.7 nM; in experiment [3], 1100 nM. The “A-431/NCI-H1975 Selectivity” value in experiment [1] was 54.8.
For the compound `C=CC(=O)Nc1cc(Nc2cc(-c3ccc4cnn(C)c4c3)ncn2)c(OC)cc1N1CCC(C2CCOCC2)CC1` [compound 209], the concentration for half-maximal inhibition (IC50) worked out at 24.7 nM in experiment [1] (Homo sapiens, NCI-H1975, 72 h); 12 nM in experiment [2] (Homo sapiens, PC-9, 72 h); 1620 nM in experiment [3] (Homo sapiens, A-431, 72 h). Moreover, the “A-431/NCI-H1975 Selectivity” value in experiment [1] came out at 65.7.
With `C=CC(=O)Nc1cc(Nc2cc(-c3ccc4cnn(C)c4c3)ncn2)c(OC)cc1N1CCC(N2CCN(C3COC3)CC2)CC1` [compound 211], the IC50 amounted to 11.3 nM in experiment [1] (Homo sapiens, NCI-H1975, 72 h); 7.4 nM in experiment [2] (Homo sapiens, PC-9, 72 h); 1040 nM in experiment [3] (Homo sapiens, A-431, 72 h).
For the compound `C=CC(=O)Nc1cc(Nc2cc(-c3ccc4c(cnn4C)c3)ncn2)c(OC)cc1N1CCC(N2CCCC2=O)CC1` [compound 212], the IC50 amounted to 71.8 nM in experiment [1] (Homo sapiens, NCI-H1975, 72 h); 54.7 nM in experiment [2] (Homo sapiens, PC-9, 72 h); 2030 nM in experiment [3] (Homo sapiens, A-431, 72 h). In addition, in experiment [1], the “A-431/NCI-H1975 Selectivity” value is 28.3.
